Laboratory results as given in patent US20240391877A1, “COMPOUND AS INHIBITOR OF COMPLEMENT FACTOR D, AND PHARMACEUTICAL COMPOSITION AND USE THEREOF” (WUHAN CREATERNA SCIENCE AND TECHNOLOGY CO.,LTD., priority 2021, published 2024).
Read-outs that look alike come from different tables or passages of the source.

Experiments:
[1] = system: hemolysis of rabbit erythrocytes; test: Rabbit erythrocyte hemolysis assay to evaluate inhibitory activity on the bypass pathway; assay type: cell-based; settings: Oryctolagus cuniculus, 0.5 h, 48% NHP or 26.4% NHS, 37° C. 30 min, absorbance 415 nm
Text: 2. Rabbit Erythrocyte Hemolysis Assay to Evaluate the Inhibitory Activity of Compounds on the Bypass Pathway
Normal Human Serum, NHS (collected from healthy people), Normal Human Plasma, NHP (Shanghai Yuduo), 96-well ELISA plate (Jet Biofil), Japanese big-eared white rabbit (Wuhan WQJX), Alsever's solution (Procell), centrifuge (Thermo, PICO17), thermostatic shaker (Shanghai Fuma), destaining shaker (Beijing Liuyi), cell counter (Invitrogen, Counter Countess II) (GVB^o, EGTA, MgCl2, NaOH, microplate reader, microplate thermostatic shaker, and pipette are equivalent to those in the experiment 1).
48% NHP: 100% NHP was diluted to 48% with buffer;
26.4% NPS: 100% NHS was diluted to 26.4% with buffer;
rabbit erythrocyte suspension: blood was taken from rabbit ear marginal vein, anticoagulated with Alsever's solution at a ratio of 1:1, stored in portions at 4° C., and could be stored for 4 weeks. Before use, the suspension was centrifuged at 500 g for 5 min to discard the Alsever's solution, washed three times with an equal volume of buffer and centrifuged at 500 g for 5 min, and finally the density was adjusted to 6×10^8 cells/mL with buffer.
In the 96-well ELISA plate, the experimental group was added with 50 μL of 48% NHP or 26.4% NHS and 50 μL of compound solution; the positive control group was added with 50 μL of 48% NHP or 26.4% NHS and 50 μL of buffer containing 0.2% DMSO; the blank control group was added with 50 μL of 48% inactivated NHP or 26.4% inactivated NHS and 0.2% DMSO buffer; the H2O group was added with 100 μL of double-distilled water; incubated at 37° C. for 15 min; 20 μL of rabbit erythrocyte suspension was added to each well and incubated on a shaker at 37° C. for 30 min; centrifuged at 2000 g (3380 rpm) for 5 min, and […] of supernatant was transferred to a new 96-well ELISA plate, and the absorbance was detected at 415 nm.
The PC group represents 100% hemolysis, and the NC group represents 0% hemolysis.
IC50: half-maximal inhibitory concentration. Data were collected to calculate the log value of hemolysis percentage versus compound concentration, and IC50 values were calculated using GraphPad Prism software.

[2] = In vivo pharmacokinetic study (PK assay on SD rats); settings: Sprague-Dawley, rat, plasma; for bioavailability: read-out: Oral bioavailability F
Experimental: 3. In Vivo Pharmacokinetic Study of the Compounds of the Present Disclosure
After adaptive domestication, SPF grade SD rats were administered 1 or 3 mg/kg the compounds of the present disclosure by single gavage and tail vein injection, respectively. Plasma was collected at specific time points after administration, and the concentration of compounds in plasma was detected by LC-MS/MS (AB SCIEX Qtrap4500). The PK parameters of each compound were calculated using software to reflect the pharmacokinetic properties of the compounds of the present disclosure in vivo in animals.

complement factor D = target: T1, complement factor D (Homo sapiens, UniProt P00746); test: Complement factor D inhibitory activity (C3b method) in vitro screening; product Bb detected by ELISA; assay type: biochemical; settings: factor D + factor B + factor C3b, 37° C., Bb by MicroVue Bb Plus ELISA
T1 construct: purchased Complement tech
Text: 1. Complement Factor D Inhibitory Activity (C3b Method) In Vitro Screening Experiment
V-bottom plate (AXYGEN), DMSO (Sigma), MicroVue Bb Plus ELISA kit (Quidel), complement factor C3b (abbreviated as factor C3b, Complement tech), complement factor B (abbreviated as factor B, Complement tech), complement factor D (abbreviated as factor D, Complement tech), EDTA (MACKLIN), GVB^o (Complement tech), EGTA (Aladdin), MgCl2 (Aladdin), NaOH (Sinopharm), microplate reader (Molecular Devices, SpectraMax i3x), microplate thermostatic shaker (Thermo, MB100-2A), pipette (Gilson)
0.1 M Mg-EGTA: 3.8 g of EGTA, 0.9521 g of MgCl2, and 0.7 g of NaOH were weighed, and the pH was adjusted to 7.5 with NaOH. Distilled water was added to make up to 100 mL, and the mixture was filtered with a […] sterile needle filter, stored in portions at 4° C.
Buffer: 0.1 M Mg-EGTA solution was diluted 10-fold to 10 mM with GVB^o buffer; • factor B working solution: 1 mg/mL factor B solution (10.75 μM) was diluted 6.7-fold to 1.6 μM with buffer; • factor C3b working solution: 1 mg/mL factor C3b solution (5.68 μM) was diluted 5-fold to […] with buffer; • factor D working solution: 0.1 mg/mL factor D solution (4.17 μM) was diluted 1303-fold to 3.2 nM with buffer.
Note: a. The above dilution multiples are for reference only and are adjusted according to the true concentration labeled on the reagent; • b. factor B: 93 KDa, factor D: 24 KDa, factor C3b: 176 KDa.
Stop solution: An appropriate amount of EDTA powder was weighed, dissolved in a certain amount of GVB^o buffer, and the pH was adjusted to 7.5 with NaOH. The mixture was stirred until clear and prepared into a 10 mM solution.
Compound stock solution: 40 mM compound solution was diluted with DMSO into 1 mM stock solution, and the 1 mM stock solution was diluted 3-fold with DMSO at 8 points to prepare compound stock solutions of various concentrations.
Compound working solution: diluted 250-fold with buffer to obtain compound solutions of various concentrations.
In the V-bottom plate, the experimental group was added with 10 μL of factor D solution and 10 μL of compound solution; the positive control group was added with 10 μL of factor D solution and buffer containing 0.4% DMSO; the blank control group was added with […] containing 0.2% DMSO; incubated at 37° C. for 15 min; the factor B working solution and the factor C3b working solution were mixed homogeneously at a ratio of 1:1; 20 µL of the mixture was added to each well and incubated at 37° C. for 30 min; the reaction was stopped by adding 40 μL of stop solution; the production of product Bb was detected by MicroVue Bb Plus ELISA kit.
1.4.1 The required wells of the ELISA plate were taken out and allowed to return to room temperature, and the remaining ones were repackaged and stored at 4° C.;
1.4.2 the wells were washed twice with 300 μL of 1× wash buffer, and incubated for 1 min at 25° C. for the first wash;
1.4.3 samples were diluted 8-fold with complement specimen diluent, and 100 μL of sample was added to each well and incubated at 25° C. for 30 min;
1.4.4 the liquid in the wells was discarded, and the wells were washed 5 times with 300 μL of 1× wash buffer, and incubated at room temperature for 1 min for the first wash;
1.4.5 50 μL of Bb Plus Conjugate was added to each well and incubated at 25° C. for 30 min;
1.4.6 the liquid in the wells was discarded, and the wells were washed 5 times with 300 μL of 1× wash buffer, and incubated at room temperature for 1 min for the first wash;
1.4.7 100 μL of […] (Substrate Solution) was added to each well and incubated at 25° C. for 15 min;
1.4.8 100 μL of stop solution was added to each well, and the absorbance was detected at 450 nm within 30 min.
1.5.1 Inhibition rate of each drug concentration:
The PC group represents 0% inhibition rate, and the NC group represents 100% inhibition rate. […]

[3] = PO (3% DMSO + 4% Tween), 1 mg/kg
[4] = PO (3% DMSO + 4% Tween), 3 mg/kg

T1 sequence (P00746 26-253): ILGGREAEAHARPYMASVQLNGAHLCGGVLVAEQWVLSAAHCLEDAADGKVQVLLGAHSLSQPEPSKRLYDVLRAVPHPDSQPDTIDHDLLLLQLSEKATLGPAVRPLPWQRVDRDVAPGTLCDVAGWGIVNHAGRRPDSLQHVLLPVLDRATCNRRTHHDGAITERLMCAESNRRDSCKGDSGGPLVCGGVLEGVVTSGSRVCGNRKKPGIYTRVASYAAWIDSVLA

SMILES	IC50 [1] [nM]	AUC(0-t) ([2]; IV, 1 mg/kg) [ng·h/mL]	Cmax ([2]; IV, 1 mg/kg) [ng/mL]	half-life ([2]; IV, 1 mg/kg) [h]	bioavailability ([2]; PO 1 mg/kg vs IV 1 mg/kg) [%]	AUC(0-t) [2, 3] [ng·h/mL]	Cmax [2, 3] [ng/mL]	half-life [2, 3] [h]	IC50 (complement factor D) [nM]	bioavailability ([2]; PO 3 mg/kg vs IV 1 mg/kg) [%]	AUC(0-t) [2, 4] [ng·h/mL]	Cmax [2, 4] [ng/mL]	half-life [2, 4] [h]
NCc1cccc(-c2cc(COc3ccccc3CC(=O)O)cc(N3CCC4(CC3)CC4)c2)c1F [Compound 007, 2-(2-((3′-(aminomethyl)-2′-fluoro-5-(6-azaspiro[2.5]octan-6-yl)-[1,1′-biphenyl]-3-yl)methoxy)phenyl)acetic acid]	59	3290	3270	0.64	70.2	2310	936	1.46	12				
NCc1cccc(-c2cc(COc3ccccc3CC(=O)O)cc(N3CCC4(CC3)CC4)c2)c1 [Compound 001, 2-(2-((3′-(aminomethyl)-5-(6-azaspiro[2.5]octan-6-yl)-[1,1′-biphenyl]-3-yl)methoxy)phenyl)acetic acid]	41	8030	1800	3.59	40.3	3240	577	4.13	10				
NCc1nccc(-c2cc(COc3ccccc3CC(=O)O)cc(N3CCC4(CC3)CC4)c2)c1F [Compound 023, 2-(2-((3-(2-(aminomethyl)-3-fluoropyridin-4-yl)-5-(6-azaspiro[2.5]octan-6-yl)benzyl)oxy)phenyl)acetic acid]	76	7060	3410	4.58					15	35.3	7480	1020	4.1
